Reference: patent USRE35801E, “Prophylactic and therapeutic composition for circulatory disorders and method of treatment” (priority 1985, dated 1998)
Entries after “also recorded” stand apart in the source; their conditions may differ. Counter-ions that a name gives are not always drawn.

system: central nervous system; assay: not given; details: in vivo; cited from earlier work

| Molecule | central nervous system depressant activity |
| --- | --- |
| CCN(CC)Cc1nccn1-c1ccc([N+](=O)[O-])cc1C(=O)c1ccccc1Cl [nizofenone] | potent central nervous system depressant activity |

system: lipid peroxidation (brain homogenate); assay: Inhibitory action of lipid peroxidation in brain homogenate (TBA value); format: biochemical; details: 500 μM; rat brain homogenate, 37° C., 30 minutes
Method: (1) Inhibitory action of lipid peroxidation (a) Preparation of brain homogenate By use of Wister-strain male rat, brain homogenate was prepared following the procedure as described below. […] Next, a brain perfusion was conducted through the tube with ice-cooled 50 mM phosphate-buffered physiological saline (pH 7.4) hereinafter referred to as "PBS"), and the whole brain was extirpated. After removal of cerebellum, the wet weight of cerebrum was measured and, with addition of 9-fold amount of PBS, it was broken by a Teflon homogenizer in ice-water to be homogenized. After the brain homogenate was subjected to centrifugation at 4° C. at 2200 rpm for 10 minutes, 0.3 ml of the supernatant was apportioned into a light-shielding test tube equipped with a ground stopper, to provide a brain homogenate for evaluation of medicine. (b) Evaluation of test medicine To the brain homogenate produced in (a), 0.6 ml of PBS and 10 μl of ethanolic solution of a test medicine were added (to a final concentration of 500 μM or a concentration at a common ratio of 3 between 0.3 and 100 μm), and the mixture was heated in a warm bath at 37° C. for 30 minutes. […] Also, the same operation was performed by addition of 10 μl of ethanol (blank) in place of 10 μl ethanolic solution of the test medicine for measurement of blank. […] After shaking for about 30 seconds, the mixture was subjected to centrifugation at 3000 rpm for 10 minutes, and the supernatant was provided as a sample for measurement of peroxidized lipid.

| Molecule | Inhibitory percentage at 500 μM |
| --- | --- |
| CC1=NNC(=O)C1 [Compound 37, 3-Methyl-2-pyrazolin-5-one] | 34.3% |

same assay, conditions: inhibition of lipid peroxidation, rat brain homogenate, 37° C., 30 minutes

| Molecule | IC50 |
| --- | --- |
| CC1=NN(c2ccc(Cl)cc2)C(=O)C1 [Compound 16] | 4 µM |
| CC1=NN(c2ccccc2)C(=O)C1C (stereo not drawn) [Compound 30, 3,4-Dimethyl-1-phenyl-2-pyrazolin-5-one] | 20.6 µM |
| CC1=NN(c2ccc(C)cc2)C(=O)C1 [Compound 4] | 6.3 µM |
| O=C1C2CCCCC2=NN1c1ccccc1 (stereo not drawn) [Compound 35, 3,3a,4,5,6,7-Hexahydro-2-phenyl-2H-indazol-3-one] | 16.4 µM |
| CCCC1=NN(c2ccccc2)C(=O)C1 [Compound 25, 1-Phenyl-3-propyl-2-pyrazolin-5-one] | 5.9 µM |
| CC1=NN(c2ccccc2)C(=O)C1CC(C)C (stereo not drawn) [Compound 31, 4-Isobutyl-3-methyl-1-phenyl-2-pyrazolin-5-one] | 5.7 µM |
| CC1=NN(C2CCCCC2)C(=O)C1 [Compound 40] | 24.8 µM |
| CCOc1ccc(N2N=C(C)CC2=O)cc1 [Compound 13] | 10.3 µM |
| COc1ccc(N2N=C(C)CC2=O)cc1 [Compound 11] | 20.7 µM |

system: not given; assay: not given; details: cited from earlier work

| Molecule | solubilizing in water |
| --- | --- |
| COC1=C(OC)C(=O)C(CCCCCCCCCCO)=C(C)C1=O [idebenone] | difficulty in solubilizing in water |

system: lipid peroxidation by active oxygen; assay: not given; details: cited from earlier work

| Molecule | inhibition of lipid peroxidation by active oxygen |
| --- | --- |
| vitamin E | can inhibit lipid peroxidation by active oxygen; also recorded: only unsatisfactory action |
| COC1=C(OC)C(=O)C(CCCCCCCCCCO)=C(C)C1=O [idebenone] | can inhibit lipid peroxidation by active oxygen |
| CCN(CC)Cc1nccn1-c1ccc([N+](=O)[O-])cc1C(=O)c1ccccc1Cl [nizofenone] | can inhibit lipid peroxidation by active oxygen |

system: drowsy pattern of electroencephalogram induced by phenobarbital or pentobarbital sodium salt; assay: Antagonistic action against drowsy pattern of electroencephalogram induced by phenobarbital or pentobarbital sodium salt; format: in vivo, Wistar-strain male rat; details: PHB 30 mg/kg intravenous
Method: (2) Antagonistic action against drowsy pattern of so electroencephalogram induced by phenobarbital or pentobarbital sodium salt
A Wistar-strain male rat weighing about 400 g was intramasculary administered with 0.6 mg of d-tubocurarine to be immobilized and, while maintaining the rectal temperature at 37° to 38° C. under artificial respiration, the electroencephalogram of the left cerebral frontal cortex was measured and recorded. Also, within the left femoral artery and vein, cannulas for measurement of artery pressure and for administration of medicine were placed, respectively.
As the active ingredient of the present invention, sodium salt of the compound represented by Formula (I) was used and the respective doses of said active ingredient and 30 mg/kg of phenobarbital sodium salt (produced by Iwaki Seiyaku K.K.) (hereinafter called "PHB") or 5 mg/kg of pentobarbital sodium salt (hereinafter called PBT) were each dissolved in physiological saline and administered intravenously in a liquid amount of 1 ml/kg.
The action of the active ingredient of the present invention affecting the cortex electroencephalogram after PHB or PBT administration was investigated as follows; Namely, at the time of 5 minutes or later after PHB or PBT administration when increase of the slow-wave component can be clearly recognized on electroencephalogram, 1, 3, 10, 30 and 100 mg/kg of the active ingredient were administered. To the control group 1 ml/kg of physiological saline was intravenously administered.
Recording and analysis of electroencephalogram were continuously drawn together with artery pressure, heart rate and rectal temperature on the recorder through a multi-purpose monitoring recording device (model RM-85, produced by Nippon Koden K.K.). At the same time, electroencephalogram was recorded in data recorder (model A-65, produced by Sony K.K.), and compressed spectral array analysis was conducted by means of a computer for medical data processing (ATAC-450, produced by Nippon Koden K.K.).

| Molecule | persistence of sleep-like electroencephalogram after PHB |
| --- | --- |
| CCC1(c2ccccc2)C(=O)NC(=O)NC1=O [PHB, phenobarbital sodium salt, reference compound] | at least 3 hours |

same assay, conditions: Rattus norvegicus; intravenous, sodium salt; drowsy EEG after PHB 30 mg/kg or PBT 5 mg/kg; read-out: Antagonistic action at dose or higher

| Molecule | minimal effective dose |
| --- | --- |
| CC1=NN(c2ccc(C)cc2)C(=O)C1 [Compound 4] | ≥ 10 mg/kg |
| CCCC1=NN(c2ccccc2)C(=O)C1 [Compound 25, 1-Phenyl-3-propyl-2-pyrazolin-5-one] | ≥ 10 mg/kg |
| CC1=NN(c2ccccc2)C(=O)C1CC(C)C (stereo not drawn) [Compound 31, 4-Isobutyl-3-methyl-1-phenyl-2-pyrazolin-5-one] | ≥ 10 mg/kg |
| COc1ccc(N2N=C(C)CC2=O)cc1 [Compound 11] | ≥ 10 mg/kg |

system: electroencephalogram under normal state; assay: not given; details: deemed to be a side action in clinic; cited from earlier work

| Molecule | action against electroencephalogram under normal state |
| --- | --- |
| NC(=O)[C@@H]1CCCN1C(=O)[C@H](Cc1cnc[nH]1)NC(=O)[C@@H]1CCC(=O)N1 [TRH, L-pyrroglutamyl-L-histidyl-L-prolineamide] | exhibites an action |

system: cerebral ischemia recirculation model; assay: Protective action in cerebral ischemia recirculation model; format: in vivo, Wistar-strain male rat; design: key to Presence of electroencephalogram restoration / Judgement of action: The case when restoration of electroencephalogram is judged as +; case when not recognized as -; details: 10 mg/kg into duodenum; 10 min cerebral ischemia (Table 3)
Method: (3) Protective action in cerebral ischemia recirculation model
A Wistar-strain male rat weighing about 400 g was administered intramascularly with 0.6 mg of di-tubocurarine to be immobilized and, after a trachea cannulation, the head portion was fixed under artificial respiration on a stereotaxic device. The head skin was cut open, cranial bone was bored, and then bipolar electrode for lead-out of electroencephalogram were placed on the surface of the subdural left frontal cerebral cortex. After the electrode was fixed with the cranial bone by use of dental cement, the animal was held on its back. Next, a cannula for measurement of systemic pressure was placed within the left femoral artery, and a cannula for additional administration of d-tubocurarine within the left femoral vein, respectively. The heart rate was measured and recorded by driving a heart rate meter with the artery wave.
After blood pressure, heart rate and various parameters of electroencephalogram were stabilized, 10 mg/kg of the active ingredient of the present invention prepared in a suspension so as to give 1 ml/kg in 1% tragacanth gum solution was administered directly into duodenum […]. To the control group, only the 1% tragacanth gum solution of the same volume was administered similarly.
Ten to twenty minutes after administration of the medicine, while monitoring the electroencephalogram, blood pressure and heart rate on a multi-purpose monitoring recording device (RM-85 model, produced by Nippon Koden K.K.), the following operations were performed according to the methods shown below for cerebral ischemia loading.
First, ribs were set free at the left costicartilage end to open the chest. Next, cerebral blood flow was blocked for ten minutes by obstructing the left common carotid artery and the left subclavian artery exposed at the aorta originating portion at the same time, and then the brachiocephalic trunk by use of artery clips 30 minutes after administration of the medicine.
Recirculation of cerebral blood flow was effected by releasing at the same time the two artery clips mounted on the respective sites as mentioned above.
The protective action of the medicine for the disorder after recirculation of cerebral ischemia was examined by the presence of restoration of electroencephalogram, and survival time of animal after the recirculation.
During the experiment, the rectal temperature of the animal was maintained at 37° to 38° C. by use of a warming mat. Also, the rectal temperature was continuously drawn on the recorder together with electroencephalogram, femoral artery pressure and heart rate.

| Molecule | Presence of electroencephalogram restoration |
| --- | --- |
| CC1=NN(c2ccc(Cl)cc2)C(=O)C1 [Compound 16] | + |
| CC1=NN(c2ccccc2)C(=O)C1C (stereo not drawn) [Compound 30, 3,4-Dimethyl-1-phenyl-2-pyrazolin-5-one] | + |
| CC1=NN(c2ccc(C)cc2)C(=O)C1 [Compound 4] | + |
| O=C1C2CCCCC2=NN1c1ccccc1 (stereo not drawn) [Compound 35, 3,3a,4,5,6,7-Hexahydro-2-phenyl-2H-indazol-3-one] | + |
| CCCC1=NN(c2ccccc2)C(=O)C1 [Compound 25, 1-Phenyl-3-propyl-2-pyrazolin-5-one] | + |
| CC1=NN(c2ccccc2)C(=O)C1CC(C)C (stereo not drawn) [Compound 31, 4-Isobutyl-3-methyl-1-phenyl-2-pyrazolin-5-one] | + |
| CC1=NN(C2CCCCC2)C(=O)C1 [Compound 40] | + |
| CCOc1ccc(N2N=C(C)CC2=O)cc1 [Compound 13] | + |
| COc1ccc(N2N=C(C)CC2=O)cc1 [Compound 11] | + |
